In BindingDB's records for doi:10.1124/jpet.302.1.328 (University of North Carolina at Chapel Hill, 2002):
Values joined by “and” are separate entries in the source; they are usually repeats but may differ in a detail not shown here. Identical values can stand only once.

molecular target: Histamine H1 receptor (Cavia porcellus, UniProt P31389)
Sequence (P31389 whole entry): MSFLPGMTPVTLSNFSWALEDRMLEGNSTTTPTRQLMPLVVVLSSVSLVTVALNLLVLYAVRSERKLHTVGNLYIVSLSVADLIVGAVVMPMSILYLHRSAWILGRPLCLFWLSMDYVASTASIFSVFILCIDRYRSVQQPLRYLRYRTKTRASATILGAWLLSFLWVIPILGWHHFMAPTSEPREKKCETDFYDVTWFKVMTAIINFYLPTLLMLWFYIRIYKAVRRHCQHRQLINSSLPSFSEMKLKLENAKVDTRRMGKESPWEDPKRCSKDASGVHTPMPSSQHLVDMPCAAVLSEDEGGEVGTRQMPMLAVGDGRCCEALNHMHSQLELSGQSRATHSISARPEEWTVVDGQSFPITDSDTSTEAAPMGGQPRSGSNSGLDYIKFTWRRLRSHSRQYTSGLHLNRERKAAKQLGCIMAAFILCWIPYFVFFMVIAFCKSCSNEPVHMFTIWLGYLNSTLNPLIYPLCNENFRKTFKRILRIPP

Compound | Ki
Nc1nc2c(ncn2[C@@H]2O[C@H](COP(=O)(O)OP(=O)(O)OP(=O)(O)O)C(O)C2O)c(=O)[nH]1 (stereo partly drawn) [+ 1 mM GTP] | > 10000 nM
Cc1ccc(/C(=C\CN2CCCC2)c2ccccn2)cc1 [Actahist] | 0.93 nM and 0.69 nM
O=C(O)C=CC(=O)Oc1ccc(Cl)cc1 [NSC_6445134] | 98 nM and 80.1 nM
CN(C)[C@@H]1Cc2ccccc2[C@H](c2ccccc2)C1 [cis-H2-PAT(+)] | 53.8 nM and 77.7 nM
CN(C)C1Cc2ccccc2C(c2ccccc2)C1 (stereo not drawn) [cis-H2-PAT(+/-)] | 10.9 nM and 7.87 nM and 1.53 nM and 1.37 nM
CN(C)[C@H]1Cc2ccccc2[C@@H](c2ccccc2)C1 [cis-H2-PAT(-)] | 3.92 nM and 4.91 nM
CN(C)[C@H]1Cc2ccccc2[C@H](c2ccccc2)C1 [trans-H2-PAT(+)] | 23 nM and 11.5 nM
CN(C)[C@@H]1Cc2ccccc2[C@@H](c2ccccc2)C1 [trans-PAT] | 1.15 nM and 0.58 nM
